Measurements as given in patent US20230348418A1, “ISOINDOLINONE COMPOUNDS” (Monte Rosa Therapeutics, Inc., priority 2021, published 2023).

Legend:
NCI-H1155 [1] = assay: viability of NSCLC cell line, high N-Myc (FIG. 2A); format: cell-based, human; details: compared to low N-Myc EBC-1 and NCI-H2023
Experimental: (§1) GSPT1 was degraded by compound 10 after six hours of treatment in high N-Myc NCI-H1155 and ABC-1 cells with a DC50 of 3 nM and 22 nM, respectively (x-axys represents […]M concentration of compound 10; y-axis represents the viability in %).

GSPT1 = GSPT1 (Homo sapiens, UniProt P15170+Q96SW2); assay: GSPT1 degradation in NCI-H1155 cells; format: cell-based
Experimental: as §1

NCI-H1155 [2] = assay: N-Myc-driven mouse xenograft model, human cell line NCI-H1155 (FIG. 3A); format: in vivo
NCI-H1770 = assay: N-Myc-driven mouse xenograft model, human cell line NCI-H1770 (FIG. 3C); format: in vivo
NCI-H526 = assay: N-Myc-driven mouse xenograft model, human cell line NCI-H526 (FIG. 3D); format: in vivo
IKZF1 (Ikaros) = biological target: T1, IKZF1 (Ikaros) (Homo sapiens, UniProt Q13422); assay: Western blot selectivity assay in MM1S cells: IKZF1; format: cell-based; parameters: key: A represents a no degradation observed at 30 μM; B represents trace degradation at 30 μM (below 20%); C represents weak degradation at 30 μM (below 50%); D represents degradation at 30 μM (>90%); E represents degradation at 3 μM (>90%); F represents degradation at 0.3 μM (>90%); details: MM1S cells, 0.3, 3 and 30 μM, 6 hours
T1 construct: endogenous in cells; host or cells: MM1S (ATCC CRL-2974)
Experimental: MM1S cells were purchased from ATCC (cat. Number CRL-2974), sub-cultured in 90% RPMI 1640 with 10% FBS, supplemented with 1×P/S and incubated at 37° C., 5% CO2. Compounds were stored as 10 mM DMSO stock. For the assay, MM1S cells (3 million cells/well) were plated in 6-well plates and incubated over night. Cells were treated with respective compounds using a serial dilution: 0.3 μM, 3 μM and 30 μM as well as a vehicle only (DMSO) control for 6 hours. Media with suspension cells was subsequently transferred to 15 mL conical tubes, wells rinsed twice with ice-cold PBS and merged with cell suspension in respective 15 mL conical tube. Cells were spinned down, supernatant aspirated, pellets resuspended in ice-cold PBS and transferred to microtubes. Cells were spinned down, supernatant aspirated and pellets resuspended in 120 μL RIPA lysis buffer supplemented with protease and phosphatase inhibitors. Cell lysates were incubated on ice for 20 minutes followed by centrifugation at >20,000×g for 5 min. Supernatants were transferred to fresh microtubes and stored at −80° C. Total protein concentration was determined using a BCA assay with a BSA standard curve and concentration of all samples was adjusted to 1 mg/mL. 25 μL 4×LDS sample buffer supplemented with 100 mM DTT was added to 75 μL sample. Samples were centrifuged (8,000×g, 1 min) and incubated at 95° C. for 5 min followed by another centrifugation step (8,000×g, 1 min). 20 μL of each sample was loaded on a 4-12% gel alongside a protein molecular weight marker. Gels were run in the presence of MOPS buffer at 80 Volts for 30 min, followed by 120 Volts for 1.5 h and proteins subsequently transferred onto nitrocellulose membranes at 20 Volts for 7 min using an iBlot2 Gel Transfer Device. Membranes were then cut horizontally into two pieces, covering 80-50 kDa and 50-25 kDa. Blocking the membranes was performed by gently shaking in 5% (w/v) skim milk in TSB-T for 1 hr at room temperature. All primary antibodies were used at a 1/1000 in 5% (w/v) BSA dissolved in TBST and incubated with membranes over night at 4° C. Anti-IKZF1 (Ikaros; D6N9Y; 14859S), anti-IKZF3 (Aiolos; D1C1E; 15103S) antibodies were purchased from Cell Signalling Technology, anti-ZFP91 antibody from Bethyl laboratories, anti-GSPT1 from Sigma Aldrich (HPA052488) and anti CK1alpha from AbCam (ab206652). After three washes with 1×TBST for 5 min, HRP-coupled secondary antibodies diluted in 5% (w/v) BSA/TBST (Goat Anti-Rb IgG, dil. 1/10,000; Goat Anti-Mouse IgG, dil. 1/5000) were added for 1 hr at room temperature. After three washes with 1×TBST (5 minutes each), membranes were incubated with ECL reagent for 1 min at room temperature. Chemiluminescence signals were then detected using a LAS-4000 system with default settings and signals quantified using Image Studio Lite software (version 5.2). Membrane parts previously incubated with antibody against CK1alpha were stripped off antibodies by incubating with stripping buffer for 30 minutes followed by three washed with TBST (5 min each), blocking with 5% (w/v) skim milk for 1 hr, and incubation with primary antibody against GAPDH overnight at 4° C. Subsequent washes, incubation with secondary antibody and signal acquisition were performed as described above.

[3] = system: NCI-H1155 cells (human non small cell lung cancer); assay: NCI-H1155 xenograft study; format: in vivo, BALB/c nude mice
Experimental: For the NCI-H1155 xenograft study, cells (human non small cell lung cancer, ATCC CRL-5818) were maintained in vitro as suspension culture in ATCC-formulated DMEM:F12 Medium supplemented as recommended by the provider and kept at 37° C. in an atmosphere of 5% CO2 in air. Cells (0.5 millions) were resuspended in 0.2 mL of PBS with Matrigel (50:50) and inoculated into female BALB/c nude mice, 6-8 weeks old, and allowed to grow to 150 mm^3 in size. Mice were dosed orally with either vehicle or compound 10 at 1 or 3 mg per kilogram daily (filled squares and filled triangles, respectively) or 6 mg per kilogram for 5 continuous days followed by 9 days treatment holidays (5 On-9 off) (filled inverted triangles). Compound formulations were prepared fresh daily in 5% vDMSO/95%(30% w/v HP-β-CD in water). Gemcitabine dosed at 40 mg per kilogram, IP, Q4Dx5 was used as a positive control (filled rhombi). For this study, mice were dosed for 21 days with tumor volumes measured every 3 days.

[4] = 6 mg/kg PO, five days on and nine days off

T1 sequence (Q96SW2 whole entry partner): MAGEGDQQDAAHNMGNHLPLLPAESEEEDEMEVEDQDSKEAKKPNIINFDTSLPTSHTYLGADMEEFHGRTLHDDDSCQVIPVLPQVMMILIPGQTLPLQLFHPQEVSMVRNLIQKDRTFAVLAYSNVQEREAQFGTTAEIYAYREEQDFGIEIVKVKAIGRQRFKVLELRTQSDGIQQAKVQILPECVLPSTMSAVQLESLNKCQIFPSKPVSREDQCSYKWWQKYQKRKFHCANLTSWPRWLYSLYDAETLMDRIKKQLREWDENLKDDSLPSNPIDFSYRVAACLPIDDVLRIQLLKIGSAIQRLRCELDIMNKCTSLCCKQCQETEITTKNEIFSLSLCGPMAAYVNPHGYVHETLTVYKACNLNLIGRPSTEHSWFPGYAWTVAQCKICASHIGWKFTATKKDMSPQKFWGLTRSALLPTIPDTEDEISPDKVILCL
T1 sequence (Q16531 2-1140 partner limits assumed): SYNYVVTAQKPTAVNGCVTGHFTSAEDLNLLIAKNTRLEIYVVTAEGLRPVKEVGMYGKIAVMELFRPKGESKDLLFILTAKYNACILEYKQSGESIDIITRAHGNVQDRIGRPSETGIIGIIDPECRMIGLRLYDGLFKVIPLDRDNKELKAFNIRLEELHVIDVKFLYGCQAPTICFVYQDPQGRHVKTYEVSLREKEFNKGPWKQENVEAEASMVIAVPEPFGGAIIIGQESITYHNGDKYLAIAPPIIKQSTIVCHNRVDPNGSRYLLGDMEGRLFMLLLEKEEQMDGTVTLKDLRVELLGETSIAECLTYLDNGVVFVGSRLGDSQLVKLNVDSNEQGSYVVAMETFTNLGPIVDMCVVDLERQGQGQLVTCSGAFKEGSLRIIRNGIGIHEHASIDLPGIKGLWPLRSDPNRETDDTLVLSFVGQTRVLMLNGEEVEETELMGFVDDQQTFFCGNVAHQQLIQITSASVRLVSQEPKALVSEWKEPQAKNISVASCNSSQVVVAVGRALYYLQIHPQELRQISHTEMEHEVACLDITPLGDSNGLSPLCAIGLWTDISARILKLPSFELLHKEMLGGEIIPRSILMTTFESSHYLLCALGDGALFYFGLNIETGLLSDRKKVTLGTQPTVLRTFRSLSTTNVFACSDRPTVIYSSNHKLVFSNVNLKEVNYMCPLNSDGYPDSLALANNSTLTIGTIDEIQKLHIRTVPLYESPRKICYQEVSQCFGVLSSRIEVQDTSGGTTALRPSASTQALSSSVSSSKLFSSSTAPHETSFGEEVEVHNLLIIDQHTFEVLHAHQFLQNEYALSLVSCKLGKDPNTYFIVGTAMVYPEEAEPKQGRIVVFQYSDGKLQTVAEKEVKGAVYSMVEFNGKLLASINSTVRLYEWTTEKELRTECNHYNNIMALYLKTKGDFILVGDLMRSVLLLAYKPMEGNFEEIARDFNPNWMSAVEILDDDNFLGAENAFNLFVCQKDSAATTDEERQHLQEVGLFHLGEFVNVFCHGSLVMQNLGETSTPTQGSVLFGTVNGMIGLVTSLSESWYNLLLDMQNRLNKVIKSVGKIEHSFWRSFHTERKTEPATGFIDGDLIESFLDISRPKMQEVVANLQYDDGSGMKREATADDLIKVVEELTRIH
T1 sequence (Q13422 whole entry): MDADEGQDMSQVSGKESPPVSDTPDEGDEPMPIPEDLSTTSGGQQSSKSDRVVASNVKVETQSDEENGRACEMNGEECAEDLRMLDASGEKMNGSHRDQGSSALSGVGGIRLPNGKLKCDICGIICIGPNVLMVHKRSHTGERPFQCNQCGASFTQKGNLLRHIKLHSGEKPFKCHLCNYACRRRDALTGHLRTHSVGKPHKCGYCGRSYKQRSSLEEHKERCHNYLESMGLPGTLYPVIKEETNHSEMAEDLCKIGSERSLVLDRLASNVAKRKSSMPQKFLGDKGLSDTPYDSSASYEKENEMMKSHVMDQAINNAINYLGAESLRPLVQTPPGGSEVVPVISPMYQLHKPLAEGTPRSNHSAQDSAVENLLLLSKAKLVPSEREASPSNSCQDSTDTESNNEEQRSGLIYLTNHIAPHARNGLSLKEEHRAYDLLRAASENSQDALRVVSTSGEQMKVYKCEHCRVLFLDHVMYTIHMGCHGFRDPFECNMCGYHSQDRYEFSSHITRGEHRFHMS
Sequence of GSPT1 (P15170 whole entry): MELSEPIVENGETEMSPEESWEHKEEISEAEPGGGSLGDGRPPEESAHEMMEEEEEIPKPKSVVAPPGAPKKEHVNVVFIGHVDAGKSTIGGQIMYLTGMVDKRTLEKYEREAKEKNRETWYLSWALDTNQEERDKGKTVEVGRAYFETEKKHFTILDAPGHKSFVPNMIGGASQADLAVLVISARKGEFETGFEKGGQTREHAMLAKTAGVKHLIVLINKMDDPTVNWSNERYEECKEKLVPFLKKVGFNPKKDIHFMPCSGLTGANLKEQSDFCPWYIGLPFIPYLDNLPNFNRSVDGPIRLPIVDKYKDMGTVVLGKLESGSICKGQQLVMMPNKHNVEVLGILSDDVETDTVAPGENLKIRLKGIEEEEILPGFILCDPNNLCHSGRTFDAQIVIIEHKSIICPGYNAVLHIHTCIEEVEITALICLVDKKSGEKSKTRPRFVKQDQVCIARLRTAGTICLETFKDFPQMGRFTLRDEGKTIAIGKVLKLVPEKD
Sequence of GSPT1 (Q96SW2 whole entry): as the sequence (Q96SW2 whole entry partner) above
Sequence of GSPT1 (Q16531 2-1140 partner limits assumed): as the sequence (Q16531 2-1140 partner limits assumed) above

- extent of GSPT1 degradation (GSPT1): complete degradation
- IKZF1 degradation (IKZF1 (Ikaros)): A
SMILES: Cc1ccc(NC(=O)OCc2ccc3c(c2)C(=O)N(C2CCC(=O)NC2=O)C3)cc1Cl (stereo not drawn) [Compound 10]
- sensitivity to treatment (viability in %) (NCI-H1155 [1]): highly sensitive
- tumor growth (tumor volume) (NCI-H1155 [2]; 1 mg/kg once daily, PO): tumor growth was suppressed for two weeks
- tumor size (tumor volume) (NCI-H1155 [2]; 3 mg/kg once daily, PO): tumor size decreased, became undetectable by day eight and remained so until the end of the study at day 21
- tumor size (tumor volume) (NCI-H1155 [2]; [4]): tumor size decreased, became undetectable by day eight and remained so until the end of the study at day 21
- body weight (NCI-H1155 [2]; oral administration, NCI-H1155 xenograft): no body weight loss observed
- tumor growth (tumor volume) (NCI-H1155 [2]; oral administration, NCI-H1155 xenograft, overall): tumor growth inhibition
- tumor size (tumor volume) (NCI-H1770; 3 mg/kg once daily, PO): tumor size decreased and remained so until the end of the study
- tumor size (tumor volume) (NCI-H1770; [4]): tumor size decreased and remained so until the end of the study
- body weight (NCI-H1770; oral administration, NCI-H1770 xenograft): no body weight loss observed
- tumor growth (tumor volume) (NCI-H1770; oral administration, NCI-H1770 xenograft, overall): tumor growth inhibition
- tumor size (tumor volume) (NCI-H526; 3 mg/kg once daily, PO): tumor size decreased and remained so until the end of the study
- tumor size (tumor volume) (NCI-H526; [4]): tumor size decreased and remained so until the end of the study
- body weight (NCI-H526; oral administration, NCI-H526 xenograft): no body weight loss observed
- tumor growth (tumor volume) (NCI-H526; oral administration, NCI-H526 xenograft, overall): tumor growth inhibition
- Tumor growth (FIG. 3A) ([3]; 1 mg/kg once daily, oral): tumor growth was suppressed for two weeks
- Tumor size (FIG. 3A) ([3]; 3 mg/kg once daily, oral): tumor size decreased, became undetectable by day eight and remained so until the end of the study at day 21
- Tumor size (FIG. 3A) ([3]; 6 mg/kg dosed for five days on and nine days off, oral): tumor size decreased, became undetectable by day eight and remained so until the end of the study at day 21
- body weight ([3]; oral administration, NCI-H1155 xenograft mice): no body weight loss observed
- Tumor growth (FIG. 3A) ([3]; oral administration, all dose groups): tumor growth inhibition
